In patent US7812021B2, “Pyrrolidine aryl-ether as NK3 receptor antagonists” (Hoffmann-La Roche Inc., priority 2007, dated 2010):

How the values were obtained:
[1] = target: T1, recombinant human NK3 receptor (Homo sapiens, UniProt P29371); test: [3H]SR142801 competition binding assay; conditions: membranes from HEK293 cells transiently expressing recombinant human NK3 receptor; [3H]SR142801 radioligand; Ki by Cheng-Prussoff
T1 construct: expressed in transfected cells; host or cells: HEK293 cells, transient expression; membranes
T1 sequence (P29371 1-465): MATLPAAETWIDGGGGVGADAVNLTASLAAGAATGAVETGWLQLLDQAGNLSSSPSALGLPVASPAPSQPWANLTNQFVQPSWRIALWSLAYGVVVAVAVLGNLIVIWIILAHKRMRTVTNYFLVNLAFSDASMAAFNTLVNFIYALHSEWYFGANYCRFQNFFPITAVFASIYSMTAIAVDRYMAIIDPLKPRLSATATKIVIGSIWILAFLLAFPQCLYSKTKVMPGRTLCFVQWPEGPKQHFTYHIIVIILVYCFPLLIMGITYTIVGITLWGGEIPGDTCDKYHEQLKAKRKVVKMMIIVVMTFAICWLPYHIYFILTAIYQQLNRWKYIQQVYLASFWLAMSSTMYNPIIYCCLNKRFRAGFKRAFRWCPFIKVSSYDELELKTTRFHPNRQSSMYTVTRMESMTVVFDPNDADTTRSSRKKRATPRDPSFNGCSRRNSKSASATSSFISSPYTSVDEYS
Method: [^3H]SR142801 Competition Binding Assay
hNK3 receptor binding experiment were performed using [^3H]SR142801 (Catalog No. TRK1035, specific activity: 74.0 Ci/mmol, Amersham, GE Healthcare UK limited, Buckinghamshire, UK) and membrane isolated from HEK293 cells transiently expressing recombinant human NK3 receptor. After thawing, the membrane homogenates were centrifuged at 48,000×g for 10 min at 4° C., the pellets were resuspended in the 50 mM Tris-HCl, 4 mM MnCl2, 1 μM phosphoramidon, 0.1% BSA binding buffer at pH 7.4 to a final assay concentration of 5 μg protein/well. For inhibition experiments, membranes were incubated with [^3H]SR142801 at a concentration equal to KD value of radioligand and 10 concentrations of the inhibitory compound (0.0003-10 μM) (in a total reaction volume of 500 μl) for 75 min at room temperature (RT). At the end of the incubation, membranes were filtered onto unit filter (96-well white microplate with bonded GF/C filter preincubated 1 h in 0.3% PEI+0.3% BSA, Packard BioScience, Meriden, Conn.) with a Filtermate 196 harvester (Packard BioScience) and washed 4 times with ice-cold 50 mM Tris-HCl, pH 7.4 buffer. Nonspecific binding was measured in the presence of 10 μM SB222200 for both radioligands. The radioactivity on the filter was counted (5 min) on a Packard Top-count microplate scintillation counter with quenching correction after addition of 45 μl of microscint 40 (Canberra Packard S. A., Zürich, Switzerland) and shaking for 1 h. Inhibition curves were fitted according to the Hill equation: y=100/(1+(x/IC50)^nH), where nH=slope factor using Excel-fit 4 software (Microsoft). IC50 values were derived from the inhibition curve and the affinity constant (Ki) values were calculated using the Cheng-Prussoff equation Ki=IC50/(1+[L]/KD) where [L] is the concentration of radioligand and KD is its dissociation constant at the receptor, derived from the saturation isotherm. All experiments were performed in duplicate and the mean±standard error (SEM) of the individual Ki values was calculated.

[2] = phase II trial, cited from earlier work

Row | Molecule | Ki [1] [µM] | other results
1 | C[C@H](Oc1ccc(Cl)cc1)[C@@H]1CN(C(=O)N2CCN(S(C)(=O)=O)CC2)C[C@H]1c1ccc(Cl)c(Cl)c1 (racemic) [Example 48, [(3SR,4RS)-3-[(SR)-1-(4-Chloro-phenoxy)-ethyl]-4 (3,4-dichloro-phenyl)-pyrrolidin-1-yl]-(4-methanesulfonyl-piperazin-1-yl)-methanone] | 0.068 | 
2 | C[C@@H](Oc1ncc(F)cn1)[C@@H]1CN(C(=O)N2CCN(S(C)(=O)=O)CC2)C[C@H]1c1ccc(Cl)c(Cl)c1 (racemic) [Example 51, {(3RS,4SR)-3-(3,4-Dichloro-phenyl)-4-[(RS)-1-(5-fluoro-pyrimidin-2-yloxy)-ethyl]-pyrrolidin-1-yl}-(4-methanesulfonyl-piperazin-1-yl)-methanone] | 0.0237 | 
3 | C[C@@H](Oc1ccc(C(F)(F)F)cc1)[C@@H]1CN(C(=O)N2CCN(CCN(C)C)CC2)C[C@H]1c1ccc(Cl)c(Cl)c1 (racemic) [Example 52] | 0.0425 | 
4 | C[C@@H](Oc1ncc(Cl)cn1)[C@@H]1CN(C(=O)N2CCN(S(C)(=O)=O)CC2)C[C@H]1c1ccc(Cl)c(Cl)c1 (racemic) [Example 53, [(3SR,4RS)-3-[(RS)-1-(5-Chloro-pyrimidin-2-yloxy)-ethyl]-4-(3,4-dichloro-phenyl)-pyrrolidin-1-yl]-(4-methanesulfonyl-piperazin-1-yl)-methanone] | 0.0068 | 
5 | C[C@@H](Oc1ccc(Cl)cn1)[C@@H]1CN(C(=O)CCCCN2CCOCC2)C[C@H]1c1ccc(Cl)c(Cl)c1 (racemic) [Example 55, 1-[(3SR,4RS)-3-[(RS)-1-(5-Chloro-pyridin-2-yloxy)-ethyl]-4-(3,4-dichloro-phenyl)-pyrrolidin-1-yl]-5-morpholin-4-yl-pentan-1-one] | 0.02 | 
6 | C[C@@H](Oc1ccc(Cl)cn1)[C@@H]1CN(C(=O)N2CCN(CCN(C)C)CC2)C[C@H]1c1ccc(Cl)c(Cl)c1 (racemic) [Example 56, [(3SR,4RS)-3-[(RS)-1-(5-Chloro-pyridin-2-yloxy)-ethyl]-4-(3,4-dichloro-phenyl)-pyrrolidin-1-yl]-[4-(2-dimethylamino-ethyl)-piperazin-1-yl]-methanone] | 0.0026 | 
7 | C[C@H](Oc1ccc(F)cn1)[C@@H]1CN(C(=O)N2CCN(S(C)(=O)=O)CC2)C[C@H]1c1ccc(Cl)c(Cl)c1 (racemic) [Example 57, {(3RS,4SR)-3-(3,4-Dichloro-phenyl)-4-[(SR)-1-(5-fluoro-pyridin-2-yloxy)-ethyl]-pyrrolidin-1-yl}-(4-methanesulfonyl-piperazin-1-yl)-methanone] | 0.0647 | 
8 | C[C@@H](Oc1ccc(F)cn1)[C@@H]1CN(C(=O)N2CCN(S(C)(=O)=O)CC2)C[C@H]1c1ccc(Cl)c(Cl)c1 (racemic) [Example 59, {(3RS,4SR)-3-(3,4-Dichloro-phenyl)-4-[(RS)-1-(5-fluoro-pyridin-2-yloxy)-ethyl]-pyrrolidin-1-yl}-(4-methanesulfonyl-piperazin-1-yl)-methanone] | 0.0126 | 
9 | C[C@@H](Oc1ccc(Cl)cn1)[C@@H]1CN(C(=O)N2CC3(COC3)C2)C[C@H]1c1ccc(Cl)c(Cl)c1 (racemic) [Example 61, [(3SR,4RS)-3-[(RS)-1-(5-Chloro-pyridin-2-yloxy)-ethyl]-4-(3,4-dichloro-phenyl)-pyrrolidin-1-yl]-(2-oxa-6-aza-spiro[3.3]hept-6-yl)-methanone] | 0.039 | 
10 | C[C@@H](Oc1ccc(Cl)cn1)[C@@H]1CN(C(=O)N2CCN3C(=O)CCC3C2)C[C@H]1c1ccc(Cl)c(Cl)c1 (mixture of isomers) [Example 62, 2-[(3SR,4RS)-3-[(RS)-1-(5-Chloro-pyridin-2-yloxy)-ethyl]-4-(3,4-dichloro-phenyl)-pyrrolidine-1-carbonyl]-hexahydro-pyrrolo[1,2-a]pyrazin-6-one] | 0.024 | 
11 | CS(=O)(=O)N1CCN(C(=O)N2C[C@@H](COc3ccc(Cl)cn3)[C@H](c3ccc(Cl)c(Cl)c3)C2)CC1 (racemic) [Example 63] | 0.012 | 
12 | CC(=O)NC1(c2ccccc2)CCN(CC(=O)N2C[C@@H]([C@@H](C)Oc3ccc(Cl)cc3)[C@H](c3ccc(Cl)c(Cl)c3)C2)CC1 (racemic) [Example 64, N-(1-{2-[(3SR,4RS)-3-[(RS)-1-(4-Chloro-phenoxy)-ethyl]-4-(3,4-dichloro-phenyl)-pyrrolidin-1-yl]-2-oxo-ethyl}-4-phenyl-piperidin-4-yl)-acetamide] | 0.019 | 
13 | CC(=O)N(C)C1(c2ccccc2)CCN(CCC[C@]2(c3ccc(Cl)c(Cl)c3)CCCN(C(=O)c3ccccc3)C2)CC1 [SR 142,801, Osanetant] |  | activity on positive symptoms of schizophrenia ([2]; altered behaviour, delusion, hallucinations, extreme emotions, excited motor activity, incoherent speech): active; activity in the treatment of negative symptoms of schizophrenia ([2]; depression, anhedonia, social isolation, memory and attention deficits): inactive
14 | N-(1-{2-[(3SR,4RS)-[3-(RS)-1-(4-Chloro-phenoxy)-ethyl]-4-(3,4-dichloro-phenyl)-pyrrolidin-1-yl]-2-oxo-ethyl}-piperidin-4-yl)-N-methyl-acetamide [Example 65] | 0.02 | 

More lines, main results first:

Row | Ki [1] [µM] | Molecule | other results
15 | 0.011 | CC(=O)N1CCN(CC(=O)N2C[C@@H]([C@@H](C)Oc3ccc(Cl)cc3)[C@H](c3ccc(Cl)c(Cl)c3)C2)CC1 (racemic) [Example 66, 2-(4-Acetyl-piperazin-1-yl)-1-[(3SR,4RS)-3-[(RS)-1-(4-chloro-phenoxy)-ethyl]-4-(3,4-dichloro-phenyl)-pyrrolidin-1-yl]-ethanone] | 
16 | 0.053 | C[C@@H](Oc1ccc(Cl)cc1)[C@@H]1CN(C(=O)CN2CCC(CO)CC2)C[C@H]1c1ccc(Cl)c(Cl)c1 (racemic) [Example 67, 1-[(3SR,4RS)-3-[(RS)-1-(4-Chloro-phenoxy)-ethyl]-4-(3,4-dichloro-phenyl)-pyrrolidin-1-yl]-2-(4-hydroxymethyl-piperidin-1-yl)-ethanone] | 
17 | 0.0056 | C[C@H](Oc1ccc(C(F)(F)F)cn1)[C@H]1CN(C(=O)N2CCN(S(C)(=O)=O)CC2)C[C@@H]1c1ccc(Cl)c(Cl)c1 (racemic) [Example 69, {(3SR,4RS)-3-(3,4-Dichloro-phenyl)-4-[(SR)-1-(5-trifluoromethyl-pyridin-2-yloxy)ethyl]-pyrrolidin-1-yl}-(4-methanesulfonyl-piperazin-1-yl)-methanone] | 
18 | 0.086 | C[C@H](Oc1ccc(C#N)cn1)[C@H]1CN(C(=O)CN2CCC(C#N)CC2)C[C@@H]1c1ccc(Cl)c(Cl)c1 (racemic) [Example 70, 6-{(SR)-1-[(3RS,4SR)-1-[2-(4-Cyano-piperidin-1-yl)-acetyl]-4-(3,4-dichloro-phenyl)-pyrrolidin-3-yl]-ethoxy}-nicotinonitrile] | 
19 | 0.0087 | C[C@H](Oc1ccc(C#N)cn1)[C@H]1CN(C(=O)N2CCC(C#N)CC2)C[C@@H]1c1ccc(Cl)c(Cl)c1 (racemic) [Example 71] | 
20 | 0.093 | C[C@H](Oc1ccc(C(F)(F)F)cn1)[C@H]1CN(C(=O)N2CC3CC2CO3)C[C@@H]1c1ccc(Cl)c(Cl)c1 (mixture of isomers) [Example 73, {(3SR,4RS)-3-(3,4-Dichloro-phenyl)-4-[(SR)-1-(5-trifluoromethyl-pyridin-2-yloxy)-ethyl]-pyrrolidin-1-yl}-(2-oxa-5-aza-bicyclo[2.2.1]hept-5-yl)-methanone] | 
21 | 0.027 | C[C@@H](Oc1ccc(Cl)cn1)[C@@H]1CN(C(=O)CN2CC3CC2CO3)C[C@H]1c1ccc(Cl)c(Cl)c1 (stereo partly drawn) [Example 68, 1-[(3S,4R)-3-[(R)-1-(5-Chloro-pyridin-2-yloxy)-ethyl]-4-(3,4-dichloro-phenyl)-pyrrolidin-1-yl]-2-(2-oxa-5-aza-bicyclo[2.2.1]hept-5-yl)-ethanone] | 
